From ChEMBL document CHEMBL5357082, “Identification and Optimization of Small Molecule Pyrazolopyrimidine TLR7 Agonists for Applications in Immuno-oncology” (ACS Med Chem Lett, 2024)

Columns and labels:
[1] = Metabolic stability in human liver microsomes assessed as compound remaining at 0.5 uM incubated for 10 mins in presence of NADPH by UV absorbance based assay; type: ADME, Microsome; conditions: read-out: Stability
Cytochrome P450 2D6 = Cytochrome P450 2D6 (Homo sapiens, UniProt P10635); assay: Inhibition of CYP2D6 (unknown origin); type: ADME; conditions: for inhibition (INH): human
Cytochrome P450 3A4 [2] = target: T1, Cytochrome P450 3A4 (Homo sapiens, UniProt P08684); assay: Inhibition of CYP3A4 (unknown origin) using BFC as substrate preincubated with compound followed by substrate addition at 30 mins; type: ADME
Cytochrome P450 1A2 = target: T2, Cytochrome P450 1A2 (Homo sapiens, UniProt P05177); assay: Inhibition of CYP1A2 (unknown origin); type: ADME; conditions: for inhibition (INH): human
T2 sequence (P05177 whole entry): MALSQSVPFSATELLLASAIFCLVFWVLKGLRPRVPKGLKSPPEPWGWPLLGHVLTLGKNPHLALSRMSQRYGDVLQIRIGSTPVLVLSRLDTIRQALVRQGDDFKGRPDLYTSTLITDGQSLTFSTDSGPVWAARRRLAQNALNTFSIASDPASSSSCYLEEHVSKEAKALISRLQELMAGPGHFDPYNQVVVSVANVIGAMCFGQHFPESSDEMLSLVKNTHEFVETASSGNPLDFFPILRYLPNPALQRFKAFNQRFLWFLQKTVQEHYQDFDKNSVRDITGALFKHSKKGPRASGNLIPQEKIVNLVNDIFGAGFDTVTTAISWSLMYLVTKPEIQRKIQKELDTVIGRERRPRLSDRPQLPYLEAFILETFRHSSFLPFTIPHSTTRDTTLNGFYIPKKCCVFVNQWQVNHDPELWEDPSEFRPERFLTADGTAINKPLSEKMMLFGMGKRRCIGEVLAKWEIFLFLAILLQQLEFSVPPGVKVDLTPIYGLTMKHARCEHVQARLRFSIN

Cytochrome P450 3A4 [3] = target: T1, Cytochrome P450 3A4; assay: Inhibition of CYP3A4 (unknown origin) using BFC as substrate; type: ADME; conditions: for inhibition (INH): human
Toll-like receptor 7 [4] = target: T3, Toll-like receptor 7 (Mus musculus, UniProt P58681); assay: Agonist activity at mouse TLR7
T3 sequence (P58681 whole entry): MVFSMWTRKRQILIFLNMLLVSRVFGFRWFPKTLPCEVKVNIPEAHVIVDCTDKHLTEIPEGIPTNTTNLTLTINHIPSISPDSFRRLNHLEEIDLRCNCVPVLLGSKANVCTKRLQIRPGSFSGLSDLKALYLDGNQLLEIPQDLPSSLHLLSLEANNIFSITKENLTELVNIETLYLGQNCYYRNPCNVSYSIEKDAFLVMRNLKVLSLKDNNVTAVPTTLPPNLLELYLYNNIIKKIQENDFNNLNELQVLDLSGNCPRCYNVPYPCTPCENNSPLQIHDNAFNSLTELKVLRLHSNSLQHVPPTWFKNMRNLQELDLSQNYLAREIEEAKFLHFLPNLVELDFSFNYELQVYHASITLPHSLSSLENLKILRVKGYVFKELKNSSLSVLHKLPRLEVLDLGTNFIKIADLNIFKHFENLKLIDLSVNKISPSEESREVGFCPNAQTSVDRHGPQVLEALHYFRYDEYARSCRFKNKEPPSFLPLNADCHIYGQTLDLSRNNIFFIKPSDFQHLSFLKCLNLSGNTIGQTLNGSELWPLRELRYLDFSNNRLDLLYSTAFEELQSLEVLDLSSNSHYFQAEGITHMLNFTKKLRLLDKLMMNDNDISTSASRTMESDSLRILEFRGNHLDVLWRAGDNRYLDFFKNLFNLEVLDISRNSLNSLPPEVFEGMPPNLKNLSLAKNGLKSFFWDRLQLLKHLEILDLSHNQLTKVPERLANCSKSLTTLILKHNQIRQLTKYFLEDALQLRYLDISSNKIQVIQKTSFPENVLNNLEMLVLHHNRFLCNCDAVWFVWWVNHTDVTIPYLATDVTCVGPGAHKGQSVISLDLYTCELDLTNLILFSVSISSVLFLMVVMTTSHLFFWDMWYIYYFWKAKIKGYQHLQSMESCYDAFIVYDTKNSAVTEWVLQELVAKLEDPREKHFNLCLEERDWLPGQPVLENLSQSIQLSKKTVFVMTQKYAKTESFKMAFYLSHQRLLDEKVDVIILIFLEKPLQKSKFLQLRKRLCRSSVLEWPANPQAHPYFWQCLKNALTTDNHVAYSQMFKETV

[5] = Metabolic stability in mouse liver microsomes assessed as compound remaining at 0.5 uM incubated for 10 mins in presence of NADPH by UV absorbance based assay; type: ADME, Microsome; conditions: read-out: Stability
[6] = target: Voltage-gated inwardly rectifying potassium channel KCNH2 (Homo sapiens, UniProt Q12809); assay: Inhibition of hERG; type: toxicity; conditions: for inhibition (INH): human
Cytochrome P450 2C9 = Cytochrome P450 2C9 (Homo sapiens, UniProt P11712); assay: Inhibition of CYP2C9 (unknown origin); type: ADME; conditions: for inhibition (INH): human
Cytochrome P450 2C8 = target: T4, Cytochrome P450 2C8 (Homo sapiens, UniProt P10632); assay: Inhibition of CYP2C8 (unknown origin); type: ADME; conditions: for inhibition (INH): human
T4 sequence (P10632 whole entry): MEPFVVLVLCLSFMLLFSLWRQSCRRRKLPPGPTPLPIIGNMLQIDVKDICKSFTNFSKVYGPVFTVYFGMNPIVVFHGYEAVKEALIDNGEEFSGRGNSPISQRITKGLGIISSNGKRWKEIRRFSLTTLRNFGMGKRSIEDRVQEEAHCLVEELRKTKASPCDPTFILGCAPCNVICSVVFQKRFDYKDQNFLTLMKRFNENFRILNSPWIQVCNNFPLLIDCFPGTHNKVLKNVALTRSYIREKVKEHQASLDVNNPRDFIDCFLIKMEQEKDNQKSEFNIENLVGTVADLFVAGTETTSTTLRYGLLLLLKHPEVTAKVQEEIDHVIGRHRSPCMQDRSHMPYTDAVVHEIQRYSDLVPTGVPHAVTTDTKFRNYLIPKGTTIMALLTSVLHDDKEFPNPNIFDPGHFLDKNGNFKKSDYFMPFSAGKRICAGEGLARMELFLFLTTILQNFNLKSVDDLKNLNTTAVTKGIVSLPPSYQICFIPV

Cytochrome P450 3A4 [7] = target: T1, Cytochrome P450 3A4; assay: Inhibition of CYP3A4 (unknown origin) using BFC as substrate preincubated with compound followed by substrate addition at 5 mins; type: ADME
Cytochrome P450 2C19 = Cytochrome P450 2C19 (Homo sapiens, UniProt P33261); assay: Inhibition of CYP2C19 (unknown origin); type: ADME; conditions: for inhibition (INH): human
[8] = Cytotoxicity against PHA-activated T-cells (unknown origin) assessed as inhibition of IL-2 induced cell proliferation measured after 72 hrs by MTS assay; type: toxicity, cell-based
Toll-like receptor 7 [9] = target: T5, Toll-like receptor 7 (Homo sapiens, UniProt Q9NYK1); assay: Agonist activity at human TLR7 in HEK-Blue hTLR7 cells harboring SEAP reporter transgene incubated for 18 hrs by quanti-blue reagent based assay; type: cell-based
T5 sequence (Q9NYK1 whole entry): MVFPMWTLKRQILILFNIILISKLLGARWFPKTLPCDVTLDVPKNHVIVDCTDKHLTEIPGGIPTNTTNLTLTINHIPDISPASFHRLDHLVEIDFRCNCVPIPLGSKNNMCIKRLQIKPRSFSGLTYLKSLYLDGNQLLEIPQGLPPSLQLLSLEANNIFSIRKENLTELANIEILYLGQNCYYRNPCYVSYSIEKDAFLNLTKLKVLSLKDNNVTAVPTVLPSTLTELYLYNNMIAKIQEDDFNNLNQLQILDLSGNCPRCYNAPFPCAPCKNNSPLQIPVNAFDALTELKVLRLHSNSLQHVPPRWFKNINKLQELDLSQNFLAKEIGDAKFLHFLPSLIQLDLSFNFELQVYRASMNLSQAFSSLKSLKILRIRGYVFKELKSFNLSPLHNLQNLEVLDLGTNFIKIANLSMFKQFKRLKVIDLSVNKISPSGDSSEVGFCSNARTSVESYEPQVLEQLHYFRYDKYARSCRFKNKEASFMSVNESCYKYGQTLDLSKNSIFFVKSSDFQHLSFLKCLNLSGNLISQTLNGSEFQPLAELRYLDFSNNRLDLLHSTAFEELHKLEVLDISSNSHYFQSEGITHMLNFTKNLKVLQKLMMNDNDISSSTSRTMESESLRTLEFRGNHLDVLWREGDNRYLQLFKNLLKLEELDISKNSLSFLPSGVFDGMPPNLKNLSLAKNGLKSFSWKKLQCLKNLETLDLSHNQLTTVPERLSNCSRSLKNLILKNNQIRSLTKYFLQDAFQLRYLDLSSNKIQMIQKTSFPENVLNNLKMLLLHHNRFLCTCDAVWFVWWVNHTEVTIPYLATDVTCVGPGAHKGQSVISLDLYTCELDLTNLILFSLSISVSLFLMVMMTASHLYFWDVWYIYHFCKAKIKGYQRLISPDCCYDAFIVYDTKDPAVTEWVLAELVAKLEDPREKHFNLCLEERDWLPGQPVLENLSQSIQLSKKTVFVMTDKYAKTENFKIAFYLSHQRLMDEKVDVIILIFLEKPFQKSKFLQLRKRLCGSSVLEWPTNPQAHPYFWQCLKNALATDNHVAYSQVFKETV

Cytochrome P450 2C9, sequence (P11712 whole entry): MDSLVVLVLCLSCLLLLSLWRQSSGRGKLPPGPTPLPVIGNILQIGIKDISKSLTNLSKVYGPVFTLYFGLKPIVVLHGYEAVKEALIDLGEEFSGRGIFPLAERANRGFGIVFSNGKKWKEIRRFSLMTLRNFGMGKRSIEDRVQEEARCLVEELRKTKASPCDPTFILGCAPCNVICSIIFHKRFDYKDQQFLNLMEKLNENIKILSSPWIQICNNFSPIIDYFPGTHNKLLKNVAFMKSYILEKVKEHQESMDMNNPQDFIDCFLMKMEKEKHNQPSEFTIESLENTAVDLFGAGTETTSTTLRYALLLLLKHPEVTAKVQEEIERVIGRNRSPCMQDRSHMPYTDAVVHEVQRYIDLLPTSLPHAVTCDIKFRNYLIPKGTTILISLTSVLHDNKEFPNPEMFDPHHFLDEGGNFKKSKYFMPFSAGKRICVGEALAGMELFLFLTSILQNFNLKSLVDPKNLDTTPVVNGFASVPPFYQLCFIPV
T1 sequence (P08684 whole entry): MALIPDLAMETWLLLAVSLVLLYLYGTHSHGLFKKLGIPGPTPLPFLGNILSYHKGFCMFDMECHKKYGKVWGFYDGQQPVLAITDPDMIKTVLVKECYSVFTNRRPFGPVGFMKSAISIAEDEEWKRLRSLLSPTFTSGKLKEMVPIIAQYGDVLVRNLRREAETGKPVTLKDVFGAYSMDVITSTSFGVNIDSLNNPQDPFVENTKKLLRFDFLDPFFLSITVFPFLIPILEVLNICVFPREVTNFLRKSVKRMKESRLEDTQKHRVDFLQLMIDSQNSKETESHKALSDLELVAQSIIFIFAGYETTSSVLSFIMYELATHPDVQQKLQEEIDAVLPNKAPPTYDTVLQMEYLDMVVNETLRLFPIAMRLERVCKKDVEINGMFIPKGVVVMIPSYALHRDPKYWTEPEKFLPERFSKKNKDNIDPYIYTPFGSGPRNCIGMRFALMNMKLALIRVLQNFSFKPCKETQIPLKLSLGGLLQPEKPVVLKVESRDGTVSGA
Cytochrome P450 2C19, sequence (P33261 whole entry): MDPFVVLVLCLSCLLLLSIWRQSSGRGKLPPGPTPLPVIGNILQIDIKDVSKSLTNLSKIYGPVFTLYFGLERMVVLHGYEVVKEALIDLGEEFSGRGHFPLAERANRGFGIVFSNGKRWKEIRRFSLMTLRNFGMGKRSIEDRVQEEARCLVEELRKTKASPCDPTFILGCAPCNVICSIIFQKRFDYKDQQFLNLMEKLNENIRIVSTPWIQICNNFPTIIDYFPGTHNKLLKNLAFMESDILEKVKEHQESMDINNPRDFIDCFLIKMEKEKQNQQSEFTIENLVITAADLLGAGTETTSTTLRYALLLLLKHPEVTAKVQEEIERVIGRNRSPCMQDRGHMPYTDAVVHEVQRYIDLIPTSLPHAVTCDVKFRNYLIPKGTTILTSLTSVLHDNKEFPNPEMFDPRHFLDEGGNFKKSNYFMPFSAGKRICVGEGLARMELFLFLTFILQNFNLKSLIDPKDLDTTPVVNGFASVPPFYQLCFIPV
Voltage-gated inwardly rectifying potassium channel KCNH2, sequence (Q12809 whole entry): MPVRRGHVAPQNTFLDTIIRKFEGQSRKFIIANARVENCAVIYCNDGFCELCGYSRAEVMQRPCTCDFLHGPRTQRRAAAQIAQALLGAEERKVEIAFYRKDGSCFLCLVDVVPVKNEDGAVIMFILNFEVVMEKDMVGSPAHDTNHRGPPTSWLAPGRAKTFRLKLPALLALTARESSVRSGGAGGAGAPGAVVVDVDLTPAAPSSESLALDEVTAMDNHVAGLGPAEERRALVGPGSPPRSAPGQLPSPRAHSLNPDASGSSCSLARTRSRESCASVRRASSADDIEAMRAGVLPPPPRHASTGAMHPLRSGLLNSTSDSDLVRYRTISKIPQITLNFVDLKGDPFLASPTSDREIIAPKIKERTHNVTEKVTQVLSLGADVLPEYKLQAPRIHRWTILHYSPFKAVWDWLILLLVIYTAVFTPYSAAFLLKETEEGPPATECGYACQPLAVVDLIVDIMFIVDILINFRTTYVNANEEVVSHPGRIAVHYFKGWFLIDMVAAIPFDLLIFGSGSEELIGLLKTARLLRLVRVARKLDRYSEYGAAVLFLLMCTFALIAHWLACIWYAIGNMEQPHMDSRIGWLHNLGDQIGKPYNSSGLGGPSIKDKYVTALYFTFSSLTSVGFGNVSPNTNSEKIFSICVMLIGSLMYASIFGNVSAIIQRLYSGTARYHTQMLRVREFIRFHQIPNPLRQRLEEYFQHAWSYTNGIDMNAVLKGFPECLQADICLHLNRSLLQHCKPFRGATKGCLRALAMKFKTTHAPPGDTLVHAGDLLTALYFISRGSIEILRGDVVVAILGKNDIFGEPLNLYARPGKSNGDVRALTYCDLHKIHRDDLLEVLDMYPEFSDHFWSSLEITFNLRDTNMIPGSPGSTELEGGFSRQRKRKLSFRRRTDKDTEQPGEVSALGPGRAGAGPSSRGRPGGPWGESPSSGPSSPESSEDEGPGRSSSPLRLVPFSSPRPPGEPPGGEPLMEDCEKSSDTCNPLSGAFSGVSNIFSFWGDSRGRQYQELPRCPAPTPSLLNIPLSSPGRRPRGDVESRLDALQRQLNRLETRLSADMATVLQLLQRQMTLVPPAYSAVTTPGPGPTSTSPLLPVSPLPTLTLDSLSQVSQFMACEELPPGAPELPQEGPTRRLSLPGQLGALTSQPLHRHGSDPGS
Cytochrome P450 2D6, sequence (P10635 whole entry): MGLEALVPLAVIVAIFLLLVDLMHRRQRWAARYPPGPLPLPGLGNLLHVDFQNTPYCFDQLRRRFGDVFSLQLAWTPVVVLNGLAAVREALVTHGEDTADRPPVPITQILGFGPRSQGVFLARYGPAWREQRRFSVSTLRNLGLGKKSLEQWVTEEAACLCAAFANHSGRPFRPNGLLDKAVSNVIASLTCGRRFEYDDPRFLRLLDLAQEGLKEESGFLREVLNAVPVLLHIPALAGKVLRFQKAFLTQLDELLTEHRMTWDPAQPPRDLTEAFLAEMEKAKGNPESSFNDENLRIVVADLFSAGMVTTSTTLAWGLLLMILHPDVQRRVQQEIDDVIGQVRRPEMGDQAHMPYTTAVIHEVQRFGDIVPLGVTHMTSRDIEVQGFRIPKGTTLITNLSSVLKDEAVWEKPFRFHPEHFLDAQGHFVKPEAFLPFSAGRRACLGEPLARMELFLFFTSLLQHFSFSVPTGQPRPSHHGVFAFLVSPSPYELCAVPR

remaining at 10 min, 0.5 µM [1]	IC50 (Cytochrome P450 2D6)	IC50 (Cytochrome P450 3A4 [2])	IC50 (Cytochrome P450 1A2)	IC50 (Cytochrome P450 3A4 [3])	EC50 (Toll-like receptor 7 [4])	remaining at 10 min, 0.5 µM [5]	IC50 (Cytochrome P450 2C9)	IC50 (Cytochrome P450 2C8)	IC50 (Cytochrome P450 3A4 [7])	IC50 (Cytochrome P450 2C19)	EC50 (Toll-like receptor 7 [9])	SMILES	IC50 [6]	IC50 at 72 h [8]	inhibition (INH) [6]	other results
75%	> 20 µM	> 20 µM	> 20 µM	> 20 µM	0.127 µM	86%	> 20 µM	> 20 µM	> 20 µM	> 20 µM		CCC[C@@H](CCO)Nc1nc(N)nc2cnn(Cc3ncc(C4=CC5(CCN(C6CCOCC6)CC5)C4)cc3OC)c12	> 100 µM	7.2 µM		
87%	> 17 µM	> 17 µM	> 17 µM	> 17 µM	1.6 µM	100%	> 17 µM	> 17 µM	> 17 µM	> 17 µM	0.37 µM	CCC[C@@H](CCO)Nc1nc(N)nc2cnn(Cc3ncc(C4CC5(CNC5)C4)cc3OC)c12	> 50 µM	> 25 µM		
					0.626 µM							CCC[C@@H](CCO)Nc1nc(N)nc2cnn(Cc3ncc(C4CC5(C4)CN(C(C)C)C5)cc3OC)c12		> 25 µM	Not Active	inhibition (INH) (Cytochrome P450 2D6): Not Active; inhibition (INH) (Cytochrome P450 1A2): Not Active; inhibition (INH) (Cytochrome P450 3A4 [3]): Not Active; inhibition (INH) (Cytochrome P450 2C9): Not Active; inhibition (INH) (Cytochrome P450 2C8): Not Active; inhibition (INH) (Cytochrome P450 2C19): Not Active
100%					0.465 µM	17%					0.087 µM	CCCCNc1nc(N)nc2cnn(Cc3ccc(C4CCNCC4)cc3OC(F)F)c12		> 25 µM	Not Active	inhibition (INH) (Cytochrome P450 2D6): Not Active; inhibition (INH) (Cytochrome P450 1A2): Not Active; inhibition (INH) (Cytochrome P450 3A4 [3]): Not Active; inhibition (INH) (Cytochrome P450 2C9): Not Active; inhibition (INH) (Cytochrome P450 2C8): Not Active; inhibition (INH) (Cytochrome P450 2C19): Not Active
95%	> 20 µM	1 µM	> 20 µM	1 µM	> 5 µM	71%	> 20 µM	> 20 µM	1.21 µM	> 20 µM		CCCCNc1nc(N)nc2c(C)nn(Cc3ncc(C4CCNCC4)cc3OC)c12	> 50 µM	> 25 µM		
57%	> 20 µM	> 20 µM	> 20 µM	> 20 µM	0.029 µM	50%	> 20 µM	> 20 µM	> 20 µM	> 20 µM	0.012 µM	CCC[C@@H](CCO)Nc1nc(N)nc2cnn(Cc3ncc(C4CCC5(CC4)CN(C4CCOCC4)C5)cc3OC)c12		18 µM	Not Active	
89%	14.2 µM	> 20 µM	> 20 µM	> 20 µM	0.074 µM	54%	> 20 µM	4.97 µM	> 20 µM	9.42 µM		CCCCNc1nc(N)nc2cnn(Cc3ccc(C4CCNCC4)cc3OC)c12	4 µM	> 25 µM		
80%	> 20 µM	> 20 µM	> 20 µM	> 20 µM	1.91 µM	93%	> 20 µM	> 20 µM	> 20 µM	> 20 µM		CCC[C@@H](CCO)Nc1nc(N)nc2cnn(Cc3ncc(C4=CC5(CCNCC5)C4)cc3OC)c12	10 µM	> 25 µM		
72%	> 20 µM	> 20 µM	> 20 µM	> 20 µM	0.159 µM	83%	> 20 µM	> 20 µM	> 20 µM	> 20 µM		CCC[C@@H](CCO)Nc1nc(N)nc2cnn(Cc3ncc(C4=CC5(CCN(C(C)C)CC5)C4)cc3OC)c12	62 µM	16 µM		
45%	1.12 µM		> 20 µM	8.14 µM		3%	> 20 µM	> 20 µM	14.2 µM	> 20 µM		CCCCNc1nc(N)nc2cnn(Cc3ccc(CNC4CCC4)cc3OC)c12	24 µM	15 µM		
